Laboratory results from patent US20170065593A1, “Combination” (Novartis AG, priority 2009, published 2017).
Where two headings read alike, the source gives them in different places.

Columns and labels:
[1] = tested on: A549 lung cancer cell line; test: Assay 2: cell growth (CellTiterGlo, 72 hours), Ymin; type: cell-based; conditions: percent of T=0 (T=0 = 100%)
Experimental: FIG. 5 depicts the effect of MEK inhibitor, mTOR inhibitor and their combination on A549 lung cancer cell line growth. […] Cells were treated with MEK inhibitor (two fold dilutions ranging from 7.3 uM-0.014 nM) or with mTOR inhibitor (two fold dilutions ranging from 14.6 uM-0.112 nM) or in combination with both compounds and incubated for 72 hours. Cell growth was measured using the CellTiterGlo (CTG) reagent (Promega) according to the manufacturer's protocol. Data were analyzed using the XLfit (IDBS Ltd.) curve-fitting tool for Microsoft Excel. Growth IC50 (gIC50) and Ymin values were generated using a four-parameter curve fit algorithm (XLFit algorithm #205). Results were expressed as a percent of the t=0 and plotted against the compound concentration. […] Formula below was used to calculate mutually exclusive combination index (CI). Data were reported as log CI, where the logarithm value of CI was calculated. […] Similar analysis was performed for all cell lines and Ymin results are depicted in FIG. 6.

95 cancer cell lines = tested on: 95 cancer cell lines
Experimental: (Compound A) or mTOR inhibitor (mTORi, Rapamycin) alone or a combination of both agents at a ratio of 1:2 (MEKi:mTORi) and cell proliferation/death was measured after 3 day drug exposure. Briefly, cells were plated in 384-well plates at 500 cells/well in culture media appropriate for each cell type, supplemented with 10% FBS and 1% penicillin/streptomycin, and incubated overnight at 37° C., 5% CO2. […] (two fold dilutions ranging from 7.3 uM-0.014 nM) or with mTOR inhibitor (two fold dilutions ranging from 14.6 uM-0.112 nM) or in combination with both compounds and incubated for 72 hours. Cell growth was measured using the CellTiterGlo (CTG) reagent (Promega) according to the manufacturer's protocol. Data were analyzed using the XLfit (IDBS Ltd.) curve-fitting tool for Microsoft Excel. Growth IC50 (gIC50) and Ymin values were generated using a four-parameter curve fit algorithm (XLFit algorithm #205).
Results were expressed as a percent of the t=0 and plotted against the compound concentration. The T=0 value is normalized to 100% and represents the number of cells at the time of compound addition. […] Formula below was used to calculate mutually exclusive combination index (CI). Data were reported as log CI, where the logarithm value of CI was calculated.
CI=IC50 of a+b/IC50 of a+IC50 of b+a/IC50 of b
Synergy is defined as CI<1, additivity as CI=1 and antagonism as CI>1. Considering the variability of these proliferation assays we arbitrarily defined log CI>0.1 as antagonism, between −0.1 and 0.1 as no significant effect and <−0.1 as synergy.

CO[C@H]1C[C@@H]2CC[C@@H](C)[C@@](O)(O2)C(=O)C(=O)N2CCCC[C@H]2C(=O)O[C@H]([C@H](C)C[C@@H]2CC[C@@H](O)[C@H](OC)C2)CC(=O)[C@H](C)/C=C(\C)[C@@H](O)[C@@H](OC)C(=O)[C@H](C)C[C@H](C)/C=C/C=C/C=C/1C [Rapamycin]
Ymin (lower Y value at any compound concentration) [1]: 487%
% of cells with cytotoxic response (95 cancer cell lines; KRAS WT / PI3K WT cell lines): 10%
% of cells with cytotoxic response (95 cancer cell lines; KRAS WT / PI3K mutant cell lines): 5%
% of cells with cytotoxic response (95 cancer cell lines; KRAS WT cell lines): 10%
% of cells with cytotoxic response (95 cancer cell lines; KRAS mutant / PI3K WT cell lines): 11%
% of cells with cytotoxic response (95 cancer cell lines; KRAS mutant / PI3K mutant cell lines): 6%
% of cells with cytotoxic response (95 cancer cell lines; KRAS mutant cell lines): 8%
% of cells with cytotoxic response (95 cancer cell lines; PI3K WT cell lines): 8%
% of cells with cytotoxic response (95 cancer cell lines; PI3K mutant cell lines): 12%
percentage of cell undergoing death (cytotoxic) (95 cancer cell lines; all cell lines, Ymin below T=0): 9.5%
cell lines undergoing death (95 cancer cell lines; single agent, across KRAS and PI3K mutational subgroups): ≤ 11%
